The values that follow come from patent EP0216105A1, “Diazaphosphorines, process for their preparation and their use as pesticide” (priority 1985, dated 1987).

SMILES strings stand for the structures.

For one test, the system named is Haemonchus contortus. As to the kind of experiment: In vivo nematode test, infected sheep (egg count in faeces). On the set-up: species or system Schafe. The conditions noted are these: sheep infected with normally sensitive or benzimidazole-resistant Haemonchus contortus, oral, pure active substance in gelatin capsules, worm egg count before and after treatment; for minimal effective dose: read-out: Dosis effectiva. From the text: Haemonchus contortus 1 Schaf
Experimentell mit normal empfindlichen bzw. mit gegen Benzimidazol-Anthelmintika resistenten Haemonchus contortus infizierte Schafe wurden nach Ablauf der Präpatenzzeit des Parasiten behandelt. Die Wirkstoffe wurden als reiner Wirkstoff in Gelatinkapseln oral appliziert.
Der Wirkungsgrad wird dadurch bestimmt, daß man die mit dem Kot ausgeschiedenen Wurmeier vor und nach der Behandlung quantitativ auszählt.
Ein völliges Sistieren der Eiausscheidung nach der Behandlung bedeutet, daß die Würmer abgetrieben wurden oder so geschädigt sind, daß sie keine Eier mehr produzieren.

The test system of test [1] is Mückenlarven (L4) (Aedes aegypti). As to the kind of experiment: Aedes test (larvae in aqueous preparation). The class given is in vivo. The following applies: 20 Aedes aegypti larvae (L4) per glass; compared with the prior art; figures not given. From the text: • Löcungcmittal: 3 Gewichtsteile Aceton • Emulgator: 1 Gewichtsteil Alkylarylpolyglykolether
Zur Herstellung einer zweckmäßigen Wirkstoffzubereitung vermischt man 1 Gawichtcteil Wirkstoff mit der angegebenen Menge Löcungcmittel und der angegebenen Menge Emulgator und verdünnt das Konzentrat mit Wasser auf die gewünschte Konzentrationen.
Man füllt die wässrigen Wirkctoffzubereitungen in Gläser und setzt anschließend 20 Mückenlarven (L4) (Aedes aegypti) in jedes Glas ein.
Nach der gewünschten Zeit wird die Abtötung in % bestimmt. Dabei bedeutet 100 X, daß alle Tiere abgetötet wurden; 0 % bedeutet, daß keine Tiere abgetötet wurden.

In another test the test system is Caenorhabditis elegans. As to the kind of experiment: In vitro nematode test. The conditions noted are these: concentration at which reproduction is prevented, 7 days at 22°C; for minimal effective concentration: Caenorhabditis elegans, 168 h, read-out: Dosis effectiva. As for the experimental part:
10-^4 g Wirkstoff wurden in 1 ml Wasser oder 0,1 ml Dimethylsulfoxid (DMSO) gelöst. Diese Lösung wurde auf eine Replica-Platte gegeben. Dazu wurden 2 ml einer E-coli-Suspension gegeben, in der man 10-20 weibliche Tiere oder Larven von Caenorhabditis elegans in 0,5 ml M9 Pufferlösung gegeben hat. Die E-coli-Suspension wurde hergestellt indem man 300 ml einer Ubernachthalter eines Uracil-bedürftigen E-coli-Stammes mit 1,8 1 steriler M 9 Pufferlösung versetzte.
Der Versuchsansatz wurde 7 Tage bei 22°C inkubiert und danach ausgewertet. Es wurde bewertet inwieweit der Wirkstoff die Vermehrung beeinträchtigt und die Konzentration angegeben bei der die Vermehrung verhindert wird.

The subject of test [2] is Musca domestica-tmultiresistent) Maden. As to the kind of experiment: Fly maggot development inhibition test. The class given is in vivo. The following applies: Musca domestica maggots on treated filter paper, 14 days; compared with the prior art; figures not given. As for the experimental part:
Fliegenmaden-Entwicklungshommungstest Testtiere: Musca domestica-tmultiresistent) Maden Lösungsmittel: Aceton
2 Gewichtsteile Wirkstoff werden in 1 000 Volumenteilen Lösungsmittel aufgenommen. Die so erhaltene Lösung wird mit weiteren Lösungsmitteln auf die gewünschten Konzentrationen verdünnt.
2,5 ml Wirkstofflösung werden in eine Petrischale pipettiert. Auf dem Boden der Petrischale befindet sich ein Filterpapier mit einem Durchmesser von etwa 9,5 cm. Die Petrischale bleibt so lange offen stehen, bis das Lösungsmittel vollständig verdunstet ist. Je nach Konzentration der Wirkstofflösung ist die Menge Wirkstoff pro m^2 Filterpapier verschieden hoch. Anschließend gibt man etwa 25 Testtiere in die Petrischale und bedeckt sie mit einem Glasdeckel.
14 Tage nach Ansetzen der Versuche wird die Zahl der geschlüpften Fliegen kontrolliert. Bestimmt wird der X-Satz der Schlüpfhemmung im Vergleich zur unbehandelten Kontrolle.

In test [3] the test system is Raupe (L5) der Art Spodoptera frugiperda. As to the kind of experiment: Spodoptera test (treated artificial diet discs). The class given is in vivo. The following applies: Spodoptera frugiperda caterpillars (L5) on treated artificial diet; compared with the prior art; figures not given. From the text:
(§1) • Lösungsmittel: 3 Gewichtsteile Aceton • Emulgator: 1 Gewichtsteil Alkylarylpolyglykolether
Zur Herstellung einer zweckmäßigen Wirkstoffzubereitung vermischt man 1 Gewichtsteil Wirkstoff mit der angegebenen Menge Lösungsmittel und der angegebenen Menge Emulgator und verdünnt das Konzentrat mit Wasser auf die gewünschte Konzentrationen.
Kunstfutterscheiben, die in Plastikdosen liegen, werden durch Beträufeln mit der Wirkstoffzubereitung der gewünschten Konzentration behandelt. Nach Eindringen der Lösung besetzt man die Plastikdosen mit je 1 Raupe (L5) der Art Spodoptera frugiperda, wobei je Versuchsglied 5 Wiederholungen aufgestellt werden. Nach der Verpuppung legt man die Tiere eines Versuchsglieds in eine größere Dose. Nach der gewünschten Zeit wird die Abtötung in % bestimmt. Dabei bedeutet 100 X, daß alle Tiere abgetötet wurden; 0 X bedeutet, daß keine Tiere abgetötet wurden.

Another test concerns Strongyloides ratti. As to the kind of experiment: In vivo nematode test, infected rats. The arrangement: species or system Ratten. The following applies: dose at which 95% of the parasites were killed, oral by gavage on three consecutive days from day 7 after infection; for ED95: Strongyloides ratti, killed day 13, read-out: effektive Dosis. From the text: Experimentell mit Strongyloides ratti infizierte Ratten werden 7 Tage nach der Infektion an drei aufeinanderfolgenden Tagen oral mittels Schlundsonde behandelt. Die Tiere werden 13 Tage nach der Infektion getötet und die Zahl der Parasiten bestimmt. Es wird die […] angegeben, bei der 95% der Parasiten abgetötet wurden (effektive Dosis): […]

In test [4] the test system is Lucilia cuprina res.-Larven. As to the kind of experiment: Test with resistant Lucilia cuprina larvae. The class given is in vivo. The following applies: horse meat, after 24 hours, compared with the prior art, figures not given. From the text:
Test mit Lucilia cuprina resistent-Larven
• Emulgator: 35 Gewichtsteile Ethylenglykolmonomethylether • 35 Gewichtsteile Nonylphenolpolyglykolether
Zur Herstellung einer zweckmäßigen Wirkstoffzubereitung vermischt man drei Gewichtsteile Wirkstoff mit sieben Gewichtsteilen des oben angegebenen Gemisches und verdünnt das so erhaltene Konzentrat mit Wasser auf die jeweils gewünschte Konzentration.
Etwa 20 Lucilia cuprina res.-Larven werden in ein Teströhrchen gebracht, welches ca. 1 cm^3 Pferdefleisch und O,5 ml der Wirkstoffzubereitung enthält. Nach 24 Stunden wird der Abtötungsgrad bestimmt.

Test [5] concerns Larven (L3) des Meerrettichkäfers (Phaedon cochleariae). As to the kind of experiment: Phaedon larvae test (treated cabbage leaves). The following applies: Phaedon cochleariae larvae (L3) on treated Brassica oleracea leaves; compared with the prior art; figures not given. The format is in vivo.
Text: as §1
Zur Herstellung einer zweckmäßigen Wirkstoffzubereitung vermischt man 1 Gewichtsteil Wirkstoff mit der angegebenen Menge Lösungsmittel und der angegebenen Menge Emulgator und verdünnt das.Konzentrat mit Wasser auf die gewünschte Konzentration.
Kohlpflanzen (Brassica oleracea) werden mit der Wirkstoffzubereitung der gewünschten Konzentration behandelt. Ein Blatt der behandelten Pflanze wird in eine Plastikdose gelegt und mit Larven (L3) des Meerrettichkäfers (Phaedon cochleariae) besetzt. Nach 2 und 4 Tagen wird jeweils ein weiters Blatt von derselben Pflanze für die Nachfütterung verwendet.
Nach der gewünschten Zeit wird die Abtötung in % bestimmt. Dabei bedeutet 100 X, daß alle Käferlarven abgetötet wurden.

`CN1C(=O)C(C(=O)Nc2ccc(Oc3ccc(C(F)(F)F)cc3)cc2)C(=O)N(C)P1(=O)Oc1ccc(Cl)cc1` (stereo not shown) [Beispiel 3]: the minimal effective dose in the test on Haemonchus contortus came out at 50 mg/kg.
Take `CN1C(=O)C(C(=O)Nc2ccc(Cl)c(C(F)(F)F)c2)C(=O)N(C)P1(=S)Oc1ccc(Cl)cc1` (stereo not shown) [Beispiel 6]: the Abtötung in % result in test [1] is reported as “überlegene Wirksamkeit gegenüber dem Stand der Technik”. The minimal effective concentration in the test on Caenorhabditis elegans is 10 µg/mL. For the same compound, the “X-Satz der Schlüpfhemmung im Vergleich zur unbehandelten Kontrolle” value in test [2] is given as “überlegene Wirksamkeit gegenüber dem Stand der Technik”.
In the case of `CN1C(=O)C(C(=O)Nc2ccc(OC(F)(F)F)cc2)C(=O)N(C)P1(=S)Oc1ccccc1` (stereo not shown) [Beispiel 7], the Abtötung in % entry in test [1] and in test [3] was “überlegene Wirksamkeit gegenüber dem Stand der Technik” throughout. The minimal effective concentration with Caenorhabditis elegans turned out to be 10 µg/mL. Also, the “X-Satz der Schlüpfhemmung im Vergleich zur unbehandelten Kontrolle” value in test [2] was “überlegene Wirksamkeit gegenüber dem Stand der Technik”. For the same compound, in the test on Strongyloides ratti, the ED95 amounted to 50 mg/kg. For the same compound, the minimal effective dose with Haemonchus contortus turned out to be 50 mg/kg.
In the case of `CN1C(=O)C(C(=O)Nc2ccc(SC(F)(F)F)cc2)C(=O)N(C)P1(=O)Oc1ccc(Cl)cc1` (stereo not shown) [Beispiel 8], the Abtötung in % result in test [1] and in test [5] was “überlegene Wirksamkeit gegenüber dem Stand der Technik” throughout. The Abtötungsgrad result in test [4] was “überlegene Wirkung gegenüber dem Stand der Technik”. In the test on Caenorhabditis elegans, this compound registered a Dosis effectiva of 10 mg/L.
For `CN1C(=O)C(C(=O)Nc2ccc(SC(F)(F)F)cc2)C(=O)N(C)P1(=O)Oc1ccccc1` (stereo not shown) [Beispiel 10], the Abtötung in % entry in test [1], in test [3] and in test [5] was “überlegene Wirksamkeit gegenüber dem Stand der Technik” throughout. Besides, in the test with Caenorhabditis elegans, the minimal effective concentration amounted to 10 µg/mL.
On to `CN1C(=O)C(C(=O)Nc2ccc(OC(F)(F)C(F)F)cc2)C(=O)N(C)P1(=O)Oc1ccccc1` (stereo not shown) [Beispiel 15], for which, in the test with Caenorhabditis elegans, the minimal effective concentration amounted to 10 µg/mL. For the same compound, the Abtötung in % result in test [5] was “überlegene Wirksamkeit gegenüber dem Stand der Technik”.
Consider `CN1C(=O)C(C(=O)Nc2ccc(OC(F)(F)F)cc2)C(=O)N(C)P1(=O)Oc1ccccc1` (stereo not shown) [Beispiel 16], for which the Abtötung in % result in test [1], in test [3] and in test [5] was “überlegene Wirksamkeit gegenüber dem Stand der Technik” throughout. Further, the minimal effective concentration in the test on Caenorhabditis elegans amounted to 10 µg/mL.
Consider `CN1C(=O)C(C(=O)Nc2ccc(OC(F)(F)F)cc2)C(=O)N(C)P1(=O)Oc1ccc(Cl)cc1` (stereo not shown) [Beispiel 17], for which the minimal effective concentration in the test on Caenorhabditis elegans stood at 10 µg/mL. Also, in test [3], the Abtötung in % result is “überlegene Wirksamkeit gegenüber dem Stand der Technik”.
As to `CN1C(=O)C(C(=O)Nc2ccc(SC(F)(F)F)cc2)C(=O)N(C)P1(=O)Oc1ccc(Cl)cc1` (stereo not shown) [Beispiel 24], the Abtötungsgrad entry in test [4] is listed as “überlegene Wirkung gegenüber dem Stand der Technik”. In the test with Caenorhabditis elegans, the minimal effective concentration stood at 10 µg/mL. For the same compound, in test [3], the Abtötung in % entry is reported as “überlegene Wirksamkeit gegenüber dem Stand der Technik”. Moreover, the “X-Satz der Schlüpfhemmung im Vergleich zur unbehandelten Kontrolle” value in test [2] is on record as “überlegene Wirksamkeit gegenüber dem Stand der Technik”. The ED95 with Strongyloides ratti amounted to 10 mg/kg. The minimal effective dose in the test on Haemonchus contortus was found to be 10 mg/kg.
On to `CN1C(=O)C(C(=O)Nc2ccc(Cl)c(C(F)(F)F)c2)C(=O)N(C)P1(=O)Oc1ccc(Cl)cc1` (stereo not shown) [Beispiel 25], for which the Abtötungsgrad result in test [4] was “überlegene Wirkung gegenüber dem Stand der Technik”. The “X-Satz der Schlüpfhemmung im Vergleich zur unbehandelten Kontrolle” value in test [2] is given as “überlegene Wirksamkeit gegenüber dem Stand der Technik”. For the same compound, the Abtötung in % result in test [5] was “überlegene Wirksamkeit gegenüber dem Stand der Technik”. Further, in the test on Strongyloides ratti (killed day 13), the “effektive Dosis” value was determined as 25 mg/kg. The same compound came in with a Dosis effectiva with Haemonchus contortus of 25 mg/kg.
Consider `CN1C(=O)C(C(=O)Nc2ccc(S(=O)(=O)C(F)(F)F)cc2)C(=O)N(C)P1(=O)Oc1ccc(Cl)cc1` (stereo not shown) [Beispiel 26], for which the Abtötung in % entry in test [1] is reported as “überlegene Wirksamkeit gegenüber dem Stand der Technik”. Moreover, in test [4], the Abtötungsgrad entry is “überlegene Wirkung gegenüber dem Stand der Technik”. Further, the Dosis effectiva in the test on Caenorhabditis elegans was determined as 100 mg/L. In test [2], the “X-Satz der Schlüpfhemmung im Vergleich zur unbehandelten Kontrolle” value is listed as “überlegene Wirksamkeit gegenüber dem Stand der Technik”.
As to `CN1C(=O)C(C(=O)Nc2ccc(OC(F)(F)F)cc2)C(=O)N(C)P1(=S)Oc1ccc(Cl)cc1` (stereo not shown) [Beispiel 30], the minimal effective concentration in the test with Caenorhabditis elegans turned out to be 10 µg/mL. In test [3], the Abtötung in % result was “überlegene Wirksamkeit gegenüber dem Stand der Technik”. The “X-Satz der Schlüpfhemmung im Vergleich zur unbehandelten Kontrolle” value in test [2] is given as “überlegene Wirksamkeit gegenüber dem Stand der Technik”.
Consider `CN1C(=O)C(C(=O)Nc2ccc(SC(F)(F)F)cc2)C(=O)N(C)P1(=S)Oc1ccccc1` (stereo not shown) [Beispiel 33], for which the Abtötungsgrad result in test [4] is listed as “überlegene Wirkung gegenüber dem Stand der Technik”. Also, the minimal effective concentration in the test with Caenorhabditis elegans worked out at 10 µg/mL.
As to `CN1C(=O)C(C(=O)Nc2ccc(SC(F)(F)F)cc2)C(=O)N(C)P1(=S)Oc1ccc(Cl)cc1` (stereo not shown) [Beispiel 34], the Abtötungsgrad entry in test [4] is given as “überlegene Wirkung gegenüber dem Stand der Technik”. In addition, the minimal effective concentration in the test on Caenorhabditis elegans was determined as 100 µg/mL. In test [3], the Abtötung in % entry is “überlegene Wirksamkeit gegenüber dem Stand der Technik”.
As for `CC(C)N1C(=O)C(C(=O)Nc2ccc(C(F)(F)F)c(Cl)c2)C(=O)N(C)P1(=O)Oc1cccc(Cl)c1` (stereo not shown) [Beispiel 41], the Abtötungsgrad entry in test [4] was “überlegene Wirkung gegenüber dem Stand der Technik”. The minimal effective concentration in the test on Caenorhabditis elegans amounted to 10 µg/mL.
For the compound `CCN1C(=O)C(C(=O)Nc2ccc(Oc3cccc(C(F)(F)F)c3)cc2)C(=O)N(C)P1(=O)Oc1cccc(Cl)c1` (stereo not shown) [Beispiel 47], the minimal effective dose in the test with Haemonchus contortus came to 10 mg/kg.
